According to ChEMBL document CHEMBL1140525, “Conformationally restricted macrocyclic analogues of combretastatins” (Bioorg Med Chem Lett, 2007):
Blank lines part the entries; values can stand above or below the molecule they belong to.

Assays:
Tubulin (Homo sapiens) [1] = molecular target: T1, Tubulin (Homo sapiens) (UniProt P68371+Q9H4B7+P0DPH7+P68366+Q13509+Q71U36+P04350+Q3ZCM7+P07437+P68363+Q9BQE3+Q6PEY2+Q13885+Q9BVA1+Q9BUF5); experiment: Inhibition of tubulin polymerization at 20 uM; format: protein-complex assay
Tubulin (Homo sapiens) [2] = molecular target: T1, Tubulin (Homo sapiens); experiment: Inhibition of tubulin polymerization at 40 uM; format: protein-complex assay
Tubulin = experiment: Inhibition of tubulin polymerization; format: protein-complex assay, Homo sapiens
Tubulin (Homo sapiens) [3] = molecular target: T1, Tubulin (Homo sapiens); experiment: Inhibition of tubulin polymerization at 10 uM; format: protein-complex assay
Tubulin (Homo sapiens) [4] = molecular target: T1, Tubulin (Homo sapiens); experiment: Inhibition of tubulin polymerization at 30 uM; format: protein-complex assay

Compound: COc1cc2cc(OC)c1OCCOCCOc1ccc(cc1)[C@@H]1OC(C)(C)O[C@H]21
inhibition (Tubulin (Homo sapiens) [2]): 0%

Compound: COc1ccc(/C=C\c2cc(OC)c(OC)c(OC)c2)cc1
IC50 (Tubulin): 2.2 µM

Compound: COc1cc2cc(OC)c1OCCCCCCn1ccc3cc(ccc31)[C@H](O)[C@H]2O
inhibition (Tubulin (Homo sapiens) [1]): 9%

Compound: COc1cc2cc(OC)c1OCCCCCCn1ccc3cc(ccc31)[C@H](OC(C)=O)[C@H]2OC(C)=O
inhibition (Tubulin (Homo sapiens) [1]): 8%

Compound: COc1cc2cc(OC)c1OCCOCCOc1ccc(cc1)[C@H](O)[C@H]2O
inhibition (Tubulin (Homo sapiens) [2]): 0%

Compound: COc1cc2cc(OC)c1OCCOCCOc1ccc(cc1)[C@H](OC(C)=O)[C@H]2OC(C)=O (relative stereo)
inhibition (Tubulin (Homo sapiens) [2]): 0%

Compound: COc1cc2cc(OC)c1OCCOCCOc1ccc(cc1O)[C@@H](O)[C@H]2O (relative stereo)
inhibition (Tubulin (Homo sapiens) [2]): 11%

Compound: COc1cc2cc(OC)c1OCCCCCCOc1ccc(cc1)[C@H](O)[C@H]2O (relative stereo)
inhibition (Tubulin (Homo sapiens) [2]): 4%

Compound: COc1cc2cc(OC)c1OCCCCCCOc1ccc(cc1OC(C)=O)[C@H](OC(C)=O)[C@H]2OC(C)=O (relative stereo)
inhibition (Tubulin (Homo sapiens) [2]): 2%

Compound: COc1cc2cc(OC)c1OCCCCCCOc1ccc(cc1O)/C=C\2
inhibition (Tubulin (Homo sapiens) [2]): 0%

Compound: COc1cc2cc(OC)c1OCCOCCOc1ccc(cc1)/C=C\2
inhibition (Tubulin (Homo sapiens) [4]): 0%

Compound: COc1cc2cc(OC)c1OCCOCCOc1ccc(cc1OC(C)=O)[C@H](OC(C)=O)[C@H]2OC(C)=O (relative stereo)
inhibition (Tubulin (Homo sapiens) [2]): 0%

Compound: COc1cc2cc(OC)c1OCCCCCCn1ccc3cc(ccc31)[C@@H](O)[C@H]2O
inhibition (Tubulin (Homo sapiens) [1]): 11%

Compound: COc1cc2cc(OC)c1OCCOCCOc1ccc(cc1O)[C@H](O)[C@H]2O (relative stereo)
inhibition (Tubulin (Homo sapiens) [2]): 1%

The next lines start with the values.

inhibition (Tubulin (Homo sapiens) [1]): 9%
Compound: COc1cc2cc(OC)c1OCCCCCCn1ccc3cc(ccc31)[C@@H](OC(C)=O)[C@H]2OC(C)=O

inhibition (Tubulin (Homo sapiens) [2]): 60%
Compound: COc1cc2cc(OC)c1OCCCCCCOc1ccc(cc1)/C=C\2

IC50 (Tubulin): > 40 µM
Compound: COc1ccc([C@@H](O)[C@H](O)c2cc(OC)c(OC)c(OC)c2)cc1O

inhibition (Tubulin (Homo sapiens) [2]): 0%
Compound: COc1cc2cc(OC)c1OCCOCCOc1ccc(cc1)[C@@H](O)[C@H]2O (relative stereo)

IC50 (Tubulin): > 50 µM
Compound: COc1ccc([C@H]2OCO[C@@H]2c2cc(OC)c(OC)c(OC)c2)cc1O

inhibition (Tubulin (Homo sapiens) [3]): 19%
Compound: COc1cc2cc(OC)c1OCCCCCCn1ccc3cc(ccc31)/C=C\2

IC50 (Tubulin): 22 µM
Compound: COc1ccc([C@H](O)[C@@H](O)c2cc(OC)c(OC)c(OC)c2)cc1O

inhibition (Tubulin (Homo sapiens) [2]): 0%
Compound: COc1cc2cc(OC)c1OCCOCCOc1ccc(cc1OC(C)=O)[C@@H](OC(C)=O)[C@H]2OC(C)=O (relative stereo)

inhibition (Tubulin (Homo sapiens) [2]): 0%
Compound: COc1cc2cc(OC)c1OCCOCCOc1ccc(cc1)[C@@H](OC(C)=O)[C@H]2OC(C)=O (relative stereo)

IC50 (Tubulin): 4 µM
Compound: COc1ccc([C@@H]2OCO[C@H]2c2cc(OC)c(OC)c(OC)c2)cc1O

inhibition (Tubulin (Homo sapiens) [2]): 0%
Compound: COc1cc2cc(OC)c1OCCCCCCOc1ccc(cc1)[C@H](OC(C)=O)[C@H]2OC(C)=O

IC50 (Tubulin): 5 µM
Compound: COc1ccc(C[C@@H](O)c2cc(OC)c(OC)c(OC)c2)cc1O [COMBRETASTATIN]
